Results from US12350265B2, “Pharmaceutical composition for treating acute myeloid leukemia, containing FLT3 inhibitor and chemotherapeutic agents” (Hanmi Pharm. Co., Ltd., priority 2019, dated 2025).

System: MV-4-11 cell line
Experiment: MV-4-11 cell line xenografted mouse model, tumor volume / tumor growth inhibition
Type: in vivo
Details: nude mice xenografted with MV-4-11; Compound A 3 mg/kg/day orally once a day, days 1 to 21
Protocol: In a mouse model xenografted with the MV-4-11 cell line, comparison or combination efficacy tests were conducted of the FLT3 inhibitor 5-Chloro-N-(3-cyclopropyl-5-(((3R,5S)-3,5-dimethylpiperazine-1-yl)methyl)phenyl)-4-(6-methyl-1H-indole-3-yl)pyrimidin-2-amine (hereinafter compound A); 4-amino-1-[(2R,3S,4S,5R)-3,4-dihydroxy-5-(hydroxymethyl)oxolane-2-yl]pyrimidin-2-one (hereafter cytarabine); and ((8S,10S)-8-acetyl-10-[(2S,4S,5S,6S)-4-amino-5-hydroxy-6-methyl-oxane-2-yl]oxy-6,8,11-trihydroxy-1-methoxy-9,10-dihydro-7H-tetracene-5,12-dione (hereafter daunorubicin).
The MV-4-11 cell line was purchased from the American Type Culture Collection (ATCC). To construct a xenografted mouse model using this MV-4-11 cell line, 5-week-old female CAnN·Cg-Foxn1nu/Crljbgi mice (hereinafter, Nude mice) were purchased from Charles River Laboratories Japan, Inc.
The MV-4-11 cell line was inoculated subcutaneously in the flank with 5×10^6 cells/[…]/mouse and allowed to grow. Mice having a tumor volume of 100 to 300 mm^3 (length×width^2×0.5) were selected 1 day before administration, the average tumor volume in each group was divided into 4 groups (5 animals/group) so that the average tumor volume was almost the same, and each dose was administered for a total period of 21 days. […]

## Cc1ccc2c(-c3nc(Nc4cc(CN5C[C@@H](C)N[C@@H](C)C5)cc(C5CC5)c4)ncc3Cl)c[nH]c2c1 [compound A, 5-Chloro-N-(3-cyclopropyl-5-(((3R,5S)-3,5-dimethylpiperazine-1-yl)methyl)phenyl)-4-(6-methyl-1H-indole-3-yl)pyrimidin-2-amine]
  Tumor growth inhibition (TGI): 34.7%
